Laboratory results from patent US12336981B2, “Compounds and compositions for the inhibition of NAMPT” (Valo Health, Inc., priority 2010, dated 2025).
Where two headings read alike, the source gives them in different places.

What was measured:
NAMPT = target: T1, NAMPT (Homo sapiens, UniProt P43490); test: Biochemical inhibition assay: NAMPT enzymatic reaction, NMN quantified by mass spectrometry; conditions: read-out: Biochem IC50
T1 construct: His tag; host or cells: E. coli
Description: Biochemical Inhibition Assay
NAMPT Protein Purification
Recombinant His-tagged NAMPT was produced in E. coli cells, purified over a Ni column, and further purified over a size-exclusion column by XTAL Biostructures.
The NAMPT Enzymatic Reaction
The NAMPT enzymatic reactions were carried out in Buffer A (50 mM Hepes pH 7.5, 50 mM NaCl, 5 mM MgCl2, and 1 mM THP) in 96-well V-bottom plates. The compound titrations were performed in a separate dilution plate by serially diluting the compounds in DMSO to make a 100× stock. […] The compound and enzyme mix was incubated for 15 minutes at room temperature, then 10 μL of 10× substrate and co-factors in Buffer A were added to the test well to make a final concentration of 1 μM NAM, 100 μM 5-Phospho-D-ribose 1-diphosphate (PRPP), and 2.5 mM Adenosine 5′-triphosphate (ATP). The reaction was allowed to proceed for 30 minutes at room temperature, then was quenched with the addition of 11 μL of a solution of formic acid and L-Cystathionine to make a final concentration of 1% formic acid and 10 μM L-Cystathionine. Background and signal strength was determined by addition (or non-addition) of a serial dilution of NMN to a pre-quenched enzyme and cofactor mix.
A mass spectrometry-based assay was used to measure the NAMPT reaction product (NMN) and the internal control (L-Cystathionine). NMN and L-Cystathionine were detected using the services of Biocius Lifesciences with the RapidFire system. In short, the NMN and L-Cystathionine are bound to a graphitic carbon cartridge in 0.1% formic acid, eluted in 30% acetonitrile buffer, and injected into a Sciex 4000 mass spectrometer. The components of the sample were ionized with electrospray ionization and the positive ions were detected. […] The fragments are quantified and the analyzed by the following method.
First the NMN signal is normalized to the L-Cystathionine signal by dividing the NMN signal by the L-Cystathionine signal for each well. The signal from the background wells are averaged and subtracted from the test plates. […] IC50s are Determined Using Excel and this Formula.

A2780 cells = test: In-vitro cell proliferation assay (SRB), A2780 cells; format: cell-based; conditions: Homo sapiens, A2780, 72 h, A2780 cells, 72 hours, read-out: A2780 IC50
Description: In-Vitro Cell Proliferation Assay
After overnight incubation at 37° C. and 5% CO2, the compound titrations were performed in a separate dilution plate by serially diluting the compounds in DMSO to make a 1000× stock. The compounds were then further diluted to 10× final concentration in culture media, whereupon 20 μL of each dilution was added to the plated cells with controls (e.g. DMSO and blank) to make a final volume of 200 μL. The final DMSO concentration in each well was 0.1%. The plates were then incubated for 72 hours at 37° C. in a 5% CO2 incubator. The number of viable cells was then assessed using sulforhodamine B (SRB) assay. Cells were fixed at 4° C. for 1 hour with the addition of 50 μL 30% trichloroacetic acid (TCA) to make a final concentration of 6% TCA. The plates were washed four times with H2O and allowed to dry for at least 1 hour, whereupon 100 μL of a 4% SRB in 1% acetic acid solution was added to each well and incubated at room temperature for at least 30 minutes. The plates were then washed three times with 1% acetic acid, dried, and treated with 100 μL of 10 mM Tris-Base solution. The plates were then read in a microplate reader at an absorbance of 570 nm. Background was generated on a separate plate with media only.
Method for Determining % Inhibition
First, the signals from the background plate are averaged, then the background was subtracted from the test plates.
wherein X denotes the compound concentration 1, Y denotes the compound concentration 2, XX denotes the % inhibition at compound concentration 1 (X), and YY denotes the % inhibition at compound concentration 2 (Y).

T1 sequence (P43490 whole entry): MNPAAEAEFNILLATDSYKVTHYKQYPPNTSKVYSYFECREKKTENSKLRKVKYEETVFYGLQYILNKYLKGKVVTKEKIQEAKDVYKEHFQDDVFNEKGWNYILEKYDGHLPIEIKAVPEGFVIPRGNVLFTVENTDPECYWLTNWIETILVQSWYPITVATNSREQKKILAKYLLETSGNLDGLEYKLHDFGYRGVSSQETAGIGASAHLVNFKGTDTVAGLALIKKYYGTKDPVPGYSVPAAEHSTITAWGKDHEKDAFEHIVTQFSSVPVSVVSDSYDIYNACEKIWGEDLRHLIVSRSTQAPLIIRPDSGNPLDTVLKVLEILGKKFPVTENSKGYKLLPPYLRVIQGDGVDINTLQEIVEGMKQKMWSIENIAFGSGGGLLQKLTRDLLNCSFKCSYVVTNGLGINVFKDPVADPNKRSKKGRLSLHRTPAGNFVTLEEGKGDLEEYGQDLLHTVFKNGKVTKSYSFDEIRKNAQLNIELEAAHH

SMILES	IC50 (NAMPT; NAMPT enzymatic assay) [nM]	IC50 (A2780 cells; SRB) [nM]	IC50 (NAMPT; NAMPT enzymatic reaction) [nM]	IC50 (A2780 cells; SRB assay) [nM]
Cc1cn(C)c(S(=O)(=O)c2ccc(CNC(=O)c3ccc4nccn4c3)cc2)n1 [N-{[4-(1,4-dimethyl-1H-imidazole-2-sulfonyl)phenyl]methyl}imidazo[1,2-a]pyridine-6-carboxamide]	100 to 1000	95.4		
COc1cc(S(=O)(=O)c2ccc(CNC(=O)c3cc4cnccc4[nH]3)cc2)ccc1C		3	7.9	
O=C(NCc1ccc(S(=O)(=O)c2cnc3n2CCCCC3)cc1)c1cc2ccncc2s1 [N-[(4-{5H,6H,7H,8H,9H-imidazo[1,2-a]azepine-3-sulfonyl}phenyl)methyl]thieno[2,3-c]pyridine-2-carboxamide]	3	0.8		
O=C(NCc1ccc(S(=O)(=O)c2cccc(N3CCCC3)c2)cc1)c1ccc2ncsc2c1	8.8	1000 to 10000		
CCOCc1ccc(S(=O)(=O)c2ccc(CNC(=O)c3cnc4nccn4c3)cc2)cc1	2.7	5.2		
COc1cc(Cl)cc(S(=O)(=O)c2ccc(CNC(=O)c3cnc4[nH]ncc4c3)cc2)c1		2.5	9.3	
O=C(NCc1ccc(S(=O)(=O)c2cc(F)cc(OCC(F)(F)F)c2)cc1)c1cc2ccncc2o1 [N-[(4-{[3-fluoro-5-(2,2,2-trifluoroethoxy)benzene]sulfonyl}phenyl)methyl]furo[2,3-c]pyridine-2-carboxamide]	7.4	6.1		
Cc1ccc(S(=O)(=O)c2ccc(CNC(=O)c3cnc4nccn4c3)cc2)c(Cl)c1		0.7	1.5	
COc1ccc(S(=O)(=O)c2ccc(CNC(=O)c3cc4ccncc4s3)cc2)cc1OC [N-({4-[(3,4-dimethoxybenzene)sulfonyl]phenyl}methyl)thieno[2,3-c]pyridine-2-carboxamide]			3	0.9
O=C(NCc1ccc(S(=O)(=O)c2ccc(C3CCCCC3)cc2)cc1)c1cnc2nccn2c1		7.7	5.8	
CCCCOc1ccc(S(=O)(=O)c2ccc(CNC(=O)c3cnc4[nH]ncc4c3)cc2)cc1Cl		11.1	4.5	
CCOc1ccc(S(=O)(=O)c2ccc(CNC(=O)c3cnc4[nH]ncc4c3)cc2)c(C)c1		66.7	108	
Cc1ccc(Cl)cc1S(=O)(=O)c1ccc(CNC(=O)c2cc3ccncc3s2)cc1		6.6	4.8	
O=C(NCc1ccc(S(=O)(=O)c2cccc3c2sc2ccccc23)cc1)c1cnc2nccn2c1	1.8	2		
Cc1cccc(S(=O)(=O)c2ccc(CNC(=O)c3ccc4nccn4c3)cc2)c1C [N-({4-[(2,3-dimethylbenzene)sulfonyl]phenyl}methyl)imidazo[1,2-a]pyridine-6-carboxamide]		9.85	43.3	
CCc1ccc(S(=O)(=O)c2ccc(CNC(=O)c3cc4ccncc4o3)cc2)cc1 [N-({4-[(4-ethylbenzene)sulfonyl]phenyl}methyl)furo[2,3-c]pyridine-2-carboxamide]		7	5	
COc1cccc(S(=O)(=O)c2ccc(CNC(=O)c3cc4cnccc4[nH]3)cc2)c1 [N-({4-[(3-methoxybenzene)sulfonyl]phenyl}methyl)-1H-pyrrolo[3,2-c]pyridine-2-carboxamide]			7	4
Cc1cc(Cl)cc(S(=O)(=O)c2ccc(CNC(=O)c3cnc4nccn4c3)cc2)c1		2.3	4.8	
CC(C)COc1ccc(S(=O)(=O)c2ccc(CNC(=O)c3ccc4nccn4c3)cc2)cc1	2.2	2.7		
CCNC(=O)c1ccc(S(=O)(=O)c2ccc(CNC(=O)c3cnc4[nH]ncc4c3)cc2)cc1 [N-[(4-{[4-(ethylcarbamoyl)benzene]sulfonyl}phenyl)methyl]-1H-pyrazolo[3,4-b]pyridine-5-carboxamide]	103	96.8		

SMILES	IC50 (NAMPT; NAMPT enzymatic assay) [nM]	IC50 (A2780 cells; SRB) [nM]	IC50 (NAMPT; NAMPT enzymatic reaction) [nM]	IC50 (A2780 cells; SRB assay) [nM]
Cc1cc(C)n(-c2cccc(S(=O)(=O)c3ccc(CNC(=O)c4cnc5[nH]ncc5c4)cc3)c2)n1	25.3	5.3		
Cc1ccccc1S(=O)(=O)c1ccc(CNC(=O)c2cc3cnccc3[nH]2)cc1 [N-({4-[(2-methylbenzene)sulfonyl]phenyl}methyl)-1H-pyrrolo[3,2-c]pyridine-2-carboxamide]			14	13
O=C(NCc1ccc(S(=O)(=O)c2cc(Cl)cc(Cl)c2)cc1)c1cc2ccncc2s1 [N-({4-[(3,5-dichlorobenzene)sulfonyl]phenyl}methyl)thieno[2,3-c]pyridine-2-carboxamide]			6	0.7
O=C(NCc1ccc(S(=O)(=O)c2ccc(OC(F)(F)F)c(F)c2)cc1)c1cc2ccncc2o1	10	15.6		
O=C(NCc1ccc(S(=O)(=O)c2ccc(C(F)(F)F)cc2)cc1)c1cnc2nccn2c1	6	23.5		
O=C(NCc1ccc(S(=O)(=O)N2CC3CCC(C2)O3)cc1)c1cc2ccncc2s1 [N-[(4-{8-oxa-3-azabicyclo[3.2.1]octane-3-sulfonyl}phenyl)methyl]thieno[2,3-c]pyridine-2-carboxamide]			15	3
CCC[C@@H](O)c1ccc(S(=O)(=O)c2ccc(CNC(=O)c3cc4ccncc4o3)cc2)cc1	28.5	12.2		
CC(=O)c1ccccc1S(=O)(=O)c1ccc(CNC(=O)c2cc3ccncc3s2)cc1 [N-({4-[(2-acetylbenzene)sulfonyl]phenyl}methyl)thieno[2,3-c]pyridine-2-carboxamide]			1	1
O=C(NCc1ccc(S(=O)(=O)c2cccc(N3CCCCC3)c2)cc1)c1ccc2nccn2c1	11.4	3.4		
CC(C)Oc1cccc(S(=O)(=O)c2ccc(CNC(=O)c3cc4ccncc4o3)cc2)c1	12.6	14.4		
COc1ccc(NS(=O)(=O)c2ccc(CNC(=O)c3cc4cnccc4[nH]3)cc2)c(C)c1 [N-({4-[(4-methoxy-2-methylphenyl)sulfamoyl]phenyl}methyl)-1H-pyrrolo[3,2-c]pyridine-2-carboxamide]			1450	> 30000
CCc1ccccc1S(=O)(=O)c1ccc(CNC(=O)c2cc3ccncc3o2)cc1 [N-({4-[(2-ethylbenzene)sulfonyl]phenyl}methyl)furo[2,3-c]pyridine-2-carboxamide]		12.9	5.4	
O=C(NCc1ccc(S(=O)(=O)Nc2cccc3cccnc23)cc1)c1cc2cnccc2[nH]1 [N-({4-[(quinolin-8-yl)sulfamoyl]phenyl}methyl)-1H-pyrrolo[3,2-c]pyridine-2-carboxamide]			75	1480
COc1cc(S(=O)(=O)c2ccc(CNC(=O)c3ccc4nccn4c3)cc2)ccc1F		6.7	19.7	
Cc1cccc(S(=O)(=O)c2ccc(CNC(=O)c3cc4cnccc4[nH]3)cc2)c1F		7	75.8	
O=C(NCc1ccc(S(=O)(=O)N2CCCCC2)cc1)c1cnc2[nH]ncc2c1 [N-{[4-(piperidine-1-sulfonyl)phenyl]methyl}-1H-pyrazolo[3,4-b]pyridine-5-carboxamide]			17	33
COc1cc(C)cc(S(=O)(=O)c2ccc(CNC(=O)c3cc4cnccc4[nH]3)cc2)c1		2.8	9.6	
CCCCOc1ccc(S(=O)(=O)c2ccc(CNC(=O)c3cc4ccncc4s3)cc2)c(C)c1		100 to 1000	3.3	
O=C(NCc1ccc(S(=O)(=O)c2ccc3ncccc3c2)cc1)c1cnc2[nH]ncc2c1 [N-{[4-(quinoline-6-sulfonyl)phenyl]methyl}-1H-pyrazolo[3,4-b]pyridine-5-carboxamide]	10.1	4.1		
